Laboratory results: ChEMBL document CHEMBL5370676, “KRAS-Degrading Compounds: A Novel Approach to Treat Cancer by Targeting Both Wild-Type and Mutated KRAS Forms” (ACS Med Chem Lett, 2023)

Columns and labels:
Format in all cases: cell-based
[1] = biological target: T1, von Hippel-Lindau disease tumor suppressor/GTPase KRas (Homo sapiens, UniProt P01116+P40337, G12D); test: PROTAC activity at VHL/N-terminal HiBit-tagged KRAS G12D mutant (unknown origin) in human GP5d cells assessed as induction of KRAS G12D protein degradation incubated for 18 hrs by Nano-Gio HiBiT assay
[2] = tested on: von Hippel-Lindau disease tumor suppressor/GTPase KRas (Homo sapiens), P01116+P40337 [G12D]; test: PROTAC activity at VHL/HiBit-tagged KRAS G12D mutant (unknown origin) in human GP5d cells assessed as induction of KRAS G12D protein degradation incubated for 18 hrs by Nano-Gio HiBiT assay relative control
[3] = biological target: T1, von Hippel-Lindau disease tumor suppressor/GTPase KRas; test: PROTAC activity at E3 ubiquitin ligase/N-terminal HiBit-tagged KRAS G12D mutant (unknown origin) in human GP5d cells assessed as induction of KRAS G12D protein degradation incubated for 18 hrs by Nano-Gio HiBiT assay
[4] = tested on: von Hippel-Lindau disease tumor suppressor/GTPase KRas (Homo sapiens), P01116+P40337 [G12D]; test: PROTAC activity at E3 ubiquitin ligase/N-terminal HiBit-tagged KRAS G12D mutant (unknown origin) in human GP5d cells assessed as induction of KRAS G12D protein degradation incubated for 18 hrs by Nano-Gio HiBiT assay relative to control

Chain of von Hippel-Lindau disease tumor suppressor/GTPase KRas (Homo sapiens), P01116+P40337 [G12D] (P01116 whole entry G12D): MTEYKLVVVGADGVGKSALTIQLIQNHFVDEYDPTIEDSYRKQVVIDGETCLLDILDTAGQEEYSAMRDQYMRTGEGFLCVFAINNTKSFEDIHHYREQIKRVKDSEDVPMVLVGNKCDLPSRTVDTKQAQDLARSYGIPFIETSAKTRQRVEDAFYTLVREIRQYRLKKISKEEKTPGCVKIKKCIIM
Chain of von Hippel-Lindau disease tumor suppressor/GTPase KRas (Homo sapiens), P01116+P40337 [G12D] (P40337 whole entry partner): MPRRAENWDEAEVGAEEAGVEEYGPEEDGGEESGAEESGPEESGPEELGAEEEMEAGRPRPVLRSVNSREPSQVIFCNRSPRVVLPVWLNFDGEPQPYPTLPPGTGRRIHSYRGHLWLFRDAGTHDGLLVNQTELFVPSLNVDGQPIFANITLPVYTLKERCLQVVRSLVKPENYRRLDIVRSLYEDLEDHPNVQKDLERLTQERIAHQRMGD
T1 sequence (P01116 whole entry G12D, stated change not applied): as the sequence (P01116 whole entry G12D) above
T1 sequence (P40337 whole entry, stated change not applied): as the sequence (P40337 whole entry partner) above

Row | Compound | DC50 [1] [nM] | Emax [2] [%] | DC50 [3] [nM] | Emax [4] [%]
1 | Cc1ncsc1-c1ccc(CNC(=O)[C@@H]2C[C@@H](O)CN2C(=O)C(c2cc(OCCCCN3CCCN(c4nccc(-c5noc([C@@]6(C)CCCc7sc(N)c(C#N)c76)n5)n4)[C@@H](C)C3)no2)C(C)C)cc1F (some centres undefined) | 6.5 | 92 | – | –
2 | Cc1ncsc1-c1ccc(CNC(=O)[C@@H]2C[C@@H](O)CN2C(=O)C(c2cc(OCCCCN3CCCN(c4nccc(-c5noc([C@@]6(C)CCCc7sc(N)c(C#N)c76)n5)n4)[C@@H](C)C3)no2)C(C)C)cc1 (some centres undefined) | 2.7 | 91 | – | –
3 | Cc1ncsc1-c1ccc(CNC(=O)[C@@H]2C[C@@H](O)CN2C(=O)C(c2cc(OCCCCN3CCCN(c4nccc(-c5cc([C@@]6(C)CCCc7sc(N)c(C#N)c76)on5)n4)[C@@H](C)C3)no2)C(C)C)cc1 (some centres undefined) | 4.3 | 94 | – | –
4 | Cc1ncsc1-c1ccc(CNC(=O)[C@@H]2C[C@@H](O)CN2C(=O)C(c2cc(OCCCN3CCCN(c4nccc(-c5noc([C@@]6(C)CCCc7sc(N)c(C#N)c76)n5)n4)[C@@H](C)C3)no2)C(C)C)cc1 (some centres undefined) | 6.4 | 94 | – | –
5 | Cc1ncsc1-c1ccc([C@@H](NC(=O)[C@H]2C[C@H](O)CN2C(=O)[C@@H](C(C)C)n2cc(OCCCN3CCCN(c4nccc(-c5noc([C@@]6(C)CCCc7sc(N)c(C#N)c76)n5)n4)[C@@H](C)C3)nn2)[C@@H](O)C(C)C)cc1 | 1.2 | 93 | – | –
6 | Cc1ncsc1-c1ccc([C@H](NC(=O)[C@@H]2C[C@@H](O)CN2C(=O)[C@H](C(C)C)n2cc(OCCCCN3CCCN(c4nccc(-c5noc([C@@]6(C)CCCc7sc(N)c(C#N)c76)n5)n4)[C@@H](C)C3)nn2)[C@H](C)O)cc1 (single isomer, unassigned) | 1.6 | 94 | – | –
7 | Cc1ncsc1-c1ccc(CNC(=O)[C@@H]2C[C@@H](O)CN2C(=O)C(c2cc(OCCCCN3CCCN(c4nccc(-c5cc([C@@]6(C)CCCc7sc(N)c(C#N)c76)no5)n4)[C@@H](C)C3)no2)C(C)C)cc1 (single isomer, unassigned) | 8.9 | 92 | – | –
8 | CC(C)C(C(=O)N1C[C@H](O)C[C@H]1C(=O)NCc1ccc(-n2ccnc2)cc1)c1cc(OCCCCN2CCCN(c3nccc(-c4noc([C@@]5(C)CCCc6sc(N)c(C#N)c65)n4)n3)[C@@H](C)C2)no1 (single isomer, unassigned) | – | – | 6.7 | 93
9 | CC(C)C(C(=O)N1C[C@H](O)C[C@H]1C(=O)NCc1ccc(C#N)cc1)c1cc(OCCCCN2CCCN(c3nccc(-c4noc([C@@]5(C)CCCc6sc(N)c(C#N)c65)n4)n3)[C@@H](C)C2)no1 (single isomer, unassigned) | – | – | 3.9 | 91
10 | Cc1ncsc1-c1ccc([C@H](CO)NC(=O)[C@@H]2C[C@@H](O)CN2C(=O)[C@H](C(C)C)n2cc(OCCCC(C)N3CCCN(c4nccc(-c5noc([C@@]6(C)CCCc7sc(N)c(C#N)c76)n5)n4)[C@@H](C)C3)nn2)cc1 (single isomer, unassigned) | 1.4 | 94 | – | –
11 | Cc1ncsc1-c1ccc([C@H](C)NC(=O)[C@@H]2C[C@@H](O)CN2C(=O)C(C(C)C)n2cc(OCCCCN3CCCN(c4nccc(-c5noc([C@@]6(C)CCCc7sc(N)c(C#N)c76)n5)n4)[C@@H](C)C3)nn2)cc1 (single isomer, unassigned) | 1.5 | 93 | – | –
12 | CC(C)C(C(=O)N1C[C@H](O)C[C@H]1C(=O)NCc1ccc(-n2cncn2)cc1)c1cc(OCCCCN2CCCN(c3nccc(-c4noc([C@@]5(C)CCCc6sc(N)c(C#N)c65)n4)n3)[C@@H](C)C2)no1 (single isomer, unassigned) | – | – | 3.3 | 93
